Where two headings read alike, the source gives them in different places. One block for each compound: values may come before it.
Experiments:
[1] = Solubility of pharmaceuticals in dimethylether (Example 7); format: physicochemical
Method: (§1) A comparison of solubility's of a number of pharmaceuticals was performed in the following way:
(§2) Approximately 3-5 g of the pharmaceutical was slightly compressed in an uniaxial press to avoid the formation of a stable suspension. The so compressed powder was given in a pressure chamber with a sapphire glass (30 ml volume). The temperature of the pressure chamber was controlled by water bath. Then the pressure in the chamber was increased using the corresponding gas and equilibrated for 1-3 hours. After equilibration a defined sample (1.0 ml) was drawn under constant pressure and temperature conditions using a high pressure line with a defined volume. […] The sample container was afterwards rinsed with the same liquid to collect the residues of the substance in the sample container.
(§3) The solubility (G/V) was determined either by HPLC or gravimetrically after removing the liquid.

[2] = Solubility of pharmaceuticals in carbon dioxide (Example 7); format: physicochemical
Method: as §1, §2, §3

[3] = Volume weighted particle size distribution after spraying (Examples 8, 9); format: physicochemical; conditions: dissolved at 40° C., 200×10^5 Pa, sprayed into second autoclave
Method: 100 g of solid Orlistat in a container with two sinter plates was charged into an autoclave having a volume of 6 l. The autoclave was kept at a temperature of 40° C. with a water bath. Then the autoclave was filled with gas up to a pressure of 200×10^5 Pa and equilibrated for 90 min. The autoclave was connected to a second autoclave via a heated high pressure line, kept at 40° C. This second autoclave has a volume of 4 l. The dissolved Orlistat was sprayed into this second autoclave. Thereby the pressure of the first autoclave was kept constant at 200×10^5 Pa by pumping in additional gas. The resulting volume weighted particle size distribution is as follows: 100 g of solid Saquinavir in a container with two sinter plates was charged into an autoclave having a volume of 6 l. The autoclave was kept at a temperature of 40° C. with a water bath. Then the autoclave was filled with gas up to a pressure of 200×10^5 Pa and equilibrated for 90 min. The autoclave was connected to a second autoclave via a heated high pressure line, kept at 40° C. This second autoclave has a volume of 4 l. The dissolved Saquinavir was sprayed into this second autoclave. Thereby the pressure of the first autoclave was kept constant at 200×10^5 Pa by pumping in additional gas. The resulting volume weighted particle size distribution is as follows: […]

[4] = Method: 250 g of solid trans-apoester (Ethyl-8′-apo-β-carotene-8′oate) were charged into an autoclave. The autoclave was adjusted to a temperature of 67° C. […] 1003 g of the solution was sprayed into a spray-tower via a nozzle having a bore hole of 0.2 mm. The flow rate was 84 g/min. During the spray procedure the pressure in the autoclave was maintained at 150×10^5 Pa by supplementation with fresh dimethyl ether. The sample composition was determined gravimetrically.
[5] = cited from earlier work
[6] = Solubility / miscibility of β-carotene in dimethyl ether; format: physicochemical
Method: It has now been discovered that dimethyl ether is useful as a solvent for β-carotene in processes such as those described above where the material to be produced as a powder is dissolved in a solvent at high temperature and pressure, and then the pressure is reduced whereby the solubility of the dissolved material decreases to the point where it precipitates from the solution as a fine powder. […] From PCT Patent Publication WO 96/15133 it is already known that dimethyl ether is an excellent solvent at elevated temperature and pressure conditions. The solubility of β-carotene in liquid dimethyl ether is strongly temperature dependent. About 1.1 wt. % of β-carotene dissolve in liquid dimethyl ether (vapour pressure 4 bar) at 25° C. At 60° C. (vapour pressure 15 bar) already 2.7 wt. % dissolve. At higher pressures (up to 300 bar) the solubility is practically not increased in this temperature region.
Thus, a homogeneous solution of β-carotene and dimethyl ether exists at 105° C. and pressures above 140 bar.
250 g of solid trans-β-carotene were charged into an autoclave having a volume of 1 l. The autoclave was thermostatted electrically to a temperature of 105° C. 500 g of dimethyl ether (cosmetic grade) were pumped into the autoclave. Dissolution of the carotene took about 60 minutes, with shaking of the autoclave. The pressure was then 175×10^5 Pa. A sample was taken at both the top and bottom lids of the autoclave. The sample compositions were determined gravimetrically. Both samples gave a carotene content of 33 wt. % and a dimethyl ether content of 67 wt. %, i.e. a homogeneous phase of carotene and dimethyl ether was present in the autoclave.

[7] = carbon dioxide or dinitrogen monoxide, pressures up to 500 bar; cited from earlier work
[8] = Stability of β-carotene in liquid solutions with highly compressible gases; format: physicochemical; conditions: temperatures in the region of its melting point of 180° C.
Method: In analogy to the procedure described in WO 95/21688 it has been investigated whether β-carotene forms liquid solutions with the mentioned and other highly compressible substances. β-Carotene forms liquid solutions with the gases only at temperatures in the region of its melting point of 180° C.

[9] = 500 bar, cited from earlier work

Compound: CCCCCCCCCCC[C@@H](C[C@@H]1OC(=O)[C@H]1CCCCCC)OC(=O)[C@H](CC(C)C)NC=O [Orlistat]
particle size, 10% of the particles (volume weighted) [3]: ≦0.40 μm
particle size, 50% of the particles (volume weighted) [3]: ≦1.02 μm
particle size, 90% of the particles (volume weighted) [3]: ≦2.43 μm
solubility (CH3—O—CH3) ([1]; 20° C./4.5×10^5 Pa): 17.8 % (g/V)
solubility (CO2) ([2]; 30° C./100×10^5 Pa): 0.6 % (g/V)

Compound: CCOC(=O)/C(C)=C/C=C/C(C)=C/C=C/C=C(C)/C=C/C=C(C)/C=C/C1=C(C)CCCC1(C)C [apoester, Ethyl-8′-apo-β-carotene-8′oate]
content of the apoester in the sprayed dimethyl ether solution (gravimetric) ([4]; 67° C., 150×10^5 Pa, equilibrated 30 minutes): 10 wt %
particle size ([4]; Example 6, sprayed from dimethyl ether, 67° C., 150×10^5 Pa, nozzle 0.2 mm): 9 μm
mean particle size ([4]; Example 10, powder with gelatin/sucrose matrix, starch catch process): 0.23 μm

Compound: CC1=C(/C=C/C(C)=C/C=C/C(C)=C/C=C/C=C(C)/C=C/C=C(C)/C=C/C2=C(C)CCCC2(C)C)C(C)(C)CCC1 [β-carotene]
dissolution in liquid sulphur dioxide ([5]; 15° C.): 0.59 wt. %
highest concentration in supercritical fluids (ethylene) ([5]; ethylene, 55° C., 500 bar): 0.035 wt. %
concentration in the solvents which are liquid at room temperature ([5]; liquid solvents except CS2): below 1 wt. %
solubility in CS2 ([5]; room temperature): 3.5 wt. %
solubility in liquid dimethyl ether ([6]; 25° C., vapour pressure 4 bar): About 1.1 wt. %
solubility in liquid dimethyl ether ([6]; 60° C., vapour pressure 15 bar): 2.7 wt. %
carotene content of the homogeneous dimethyl ether phase (gravimetric) ([6]; 105° C., 175×10^5 Pa, Example 1): 33 wt. %
miscibility with dimethyl ether ([6]; 105° C., pressures above 140 bar): miscible without limitation in any ratio
β-carotene concentration in supercritical gases [7]: 0.01 wt. %
stability in liquid solution with the gases [8]: isomerizes or decomposes after a very short time
solubility in carbon dioxide ([9]; 35° C.): 0.00049 wt. %
solubility in carbon dioxide ([9]; 55° C.): 0.0016 wt. %

Other lines, results leading:

solubility (CH3—O—CH3) ([1]; 45° C./200×10^5 Pa): 9.0 % (g/V)
solubility (CO2) ([2]; 45° C./200×10^5 Pa): <0.1 % (g/V)
Compound: COc1ccccc1Oc1c(NS(=O)(=O)c2ccc(C(C)(C)C)cc2)nc(-c2ncccn2)nc1OCCO [Bosentan]

solubility (CH3—O—CH3) ([1]; 45° C./200×10^5 Pa): 6.0 % (g/V)
solubility (CO2) ([2]; 45° C./200×10^5 Pa): 0.3 % (g/V)
Compound: CC1=C(/C=C/C(C)=C/C=C/C(C)=C\C(=O)O)C(C)(C)CCC1 [Isotretionin]

solubility (CH3—O—CH3) ([1]; 45° C./200×10^5 Pa): 3.7 % (g/V)
solubility (CO2) ([2]; 45° C./200×10^5 Pa): 0.35 % (g/V)
Compound: O=C(NCCN1CCOCC1)c1ccc(Cl)cc1 [Moclobemide]

particle size, 10% of the particles (volume weighted) [3]: ≦0.4 μm
particle size, 50% of the particles (volume weighted) [3]: ≦0.9 μm
particle size, 90% of the particles (volume weighted) [3]: ≦1.8 μm
solubility (CH3—O—CH3) ([1]; 25° C./100×10^5 Pa): >10 % (g/V)
solubility (CO2) ([2]; 45° C./200×10^5 Pa): <0.1 % (g/V)
Compound: CC(C)(C)NC(=O)[C@@H]1C[C@@H]2CCCC[C@@H]2CN1C[C@@H](O)[C@H](Cc1ccccc1)NC(=O)[C@H](CC(N)=O)NC(=O)c1ccc2ccccc2n1 [Saquinavir]

Source: US20010031282A1, “Process for the manufacture of a pulverous preparation” (ROCHE VITAMINS INC., priority 1996, published 2001)
